Measured values: patent US20220401468A1 (priority 2021, published 2022)

Tests used:
[1] = target: SARS-CoV-2 spike protein (Severe acute respiratory syndrome coronavirus 2, UniProt P0DTC2); details: cited from earlier work
[2] = test system: SARS-CoV-2 (USA-WA1/2020); format: cell-based; details: Vero-E6 cells, 400 PFU/well, viral titer from plaque assay at 24 h post-infection
[3] = human, in vivo; cited from earlier work

Substance: Heparin sodium salt
- binding affinity [1]: high-picomolar affinity
- IC50, SARS-CoV-2 infection [2]: 0.05 µg/mL
- probability of survival [3]: increased the probability of survival
- risk of significant bleeding [3]: 10-15%

Substance: low-molecular-weight heparin
- serum IL-6 levels [3]: lower serum IL-6 levels
